{"source": "patent US20070129344A1", "about": "“Bicyclic 6-alkylidene-penem beta-lactamase inhibitors and beta-lactam antibiotic combination: a broad spectrum antibiotic” (priority 2005, published 2007)", "type_in_all_cases": "cell-based", "conditions_in_all_cases": "Cefepime + 4 ug/ml Compound 1", "key": {"[1]": {"test_system": "E. coli GC 2021 (TEM-10 + pl 6.3)", "experiment": "MIC microbroth dilution; β-lactamase class A (ESBL)", "description": "The in vitro activities of the antibiotics were determined by the microbroth dilution method as recommended by the National Committee for Clinical Laboratory Standards (NCCLS). (NCCLS. 2000. Methods for Dilution Antimicrobial Susceptibility Tests for Bacteria That Grow Aerobically; Approved Standards: M7-A5, vol. 19. National Committee for Clinical Laboratory Standards, Villanova, Pa.). Mueller-Hinton II broth (MHBII)(BBL Cockeysville, Md.), was used for the testing procedure. […]. The plates were incubated for 18-22 hours at 35° C. in ambient air."}, "[2]": {"test_system": "S. marcescens GC 4150 Stably derepressed AmpC", "experiment": "MIC microbroth dilution; β-lactamase class C", "how_it_was_run": "(§1)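 Following NCCLS standard M7-A5, antibiotics were tested by microbroth dilution in MHBII; plates sat 18-22 hours at 35° C. under ambient atmosphere.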"}, "[3]": {"test_system": "E. coli GC 2905 (P99)", "experiment": "MIC microbroth dilution; β-lactamase class C", "how_it_was_run": "as §1"}, "[4]": {"test_system": "S. marcescens PT 6003 Stably derepressed AmpC", "experiment": "MIC microbroth dilution; β-lactamase class C", "how_it_was_run": "as §1"}, "[5]": {"test_system": "P. aeruginosa GC 1764 AmpC-constitutive", "experiment": "MIC microbroth dilution; β-lactamase class C", "how_it_was_run": "as §1"}, "[6]": {"test_system": "S. marcescens PT 488 Stably derepressed AmpC", "experiment": "MIC microbroth dilution; β-lactamase class C", "how_it_was_run": "as §1"}}, "data": [{"smiles": "O=C([O-])C1=CS[C@@H]2/C(=C\\c3cn4c(n3)CCC4)C(=O)N12.[Na+]", "note": "[Compound 1, (5R), (6Z)-6-(6,7-Dihydro-5H-pyrrolo[1,2-a]imidazol-2-ylmethylene)-7-oxo-4-thia-1-aza-bicyclo[3.2.0]hept-2-ene-2-carboxylic Acid, Sodium Salt]", "values": [{"measurement": "MIC", "setting": "[1]", "result": 0.12, "unit": "µg/mL"}, {"measurement": "MIC", "setting": "[2]", "result": 0.25, "unit": "µg/mL"}, {"measurement": "MIC", "setting": "[3]", "result": 0.06, "unit": "µg/mL"}, {"measurement": "MIC", "setting": "[4]", "result": 0.25, "unit": "µg/mL"}, {"measurement": "MIC", "setting": "[5]", "result": 0.50, "unit": "µg/mL"}, {"measurement": "MIC", "setting": "[6]", "result": 0.06, "unit": "µg/mL"}]}]}
